Reference: the NIST ThermoML archive (doi:10.1016/j.jct.2011.06.020)

Experiments:
[1] = refractive index (Na D-line) (dimensionless); xn = mol fraction of the nth substance listed; details: 101 kPa, Liquid, Standard Abbe refractometry, x2 = 0
[2] = xn = mol fraction of the nth substance listed; details: x2 = 0; for surface tension liquid-gas: Tensiometer with plate; for viscosity / mass density: 101 kPa, Liquid; for viscosity: Capillary tube (Ostwald / Ubbelohde) method; for mass density: Vibrating tube method

O [water] + CN1CCNCC1
Details	mass density, [2] [kg/m3]	refractive index, [1]	surface tension liquid-gas, [2] [mN/m]	viscosity, [2] [mPa·s]
293.15 K	–	1.333	72.09	–
298.15 K	–	1.333	–	0.894
303.15 K	–	1.332	71.27	0.8
308.15 K	–	1.331	70.44	–
313.15 K	–	1.331	69.66	0.656
318.15 K	–	1.331	68.83	–
323.15 K	–	1.329	67.95	–
325.15 K	988.03	–	–	0.55
328.15 K	–	1.328	–	–
333.15 K	983.2	1.327	66.23	0.47
343.15 K	977.78	–	–	0.409
